One data set deals with Bach1 mRNA. In words: Bach1 mRNA knockdown and potency in human bronchial epithelial cells (NHBE). Format: cell-based. As to conditions: 48 hours post transfection, mean of 3 donors; for EC50: Bach1 mRNA knockdown; for Maximum mRNA knockdown: Bach1 mRNA. As to the method:
The siNAs with Duplex ID numbers corresponding to 29961-DC, 29964-DC, 29984-DC, 29988-DC, 29957-DC, 29947-DC, and 29956-DC were tested for maximum Bach1 mRNA knockdown and for potency in human bronchial epithelial cells as follows.
Human Bronchial Epithelial cells (NHBE cells) obtained from Lonza (Cat. No. CC-2540) were grown at 37deg in the presence of 5% CO2 and cultured in BEBM basal medium (Lonza, Cat. No. CC-3171) on Biocoat Collagen1 coated flasks (Becton Dickinson).
NHBE cells were plated in collagen 1 coated plates and cultured in appropriate culture media. The cells were cultured for 24 hours after plating at 37 degrees in the presence of 5% CO2. siNAs were diluted in OptiMEM 1 to 1 uM and the transfection agent to 25 ug/ml. For formulation of the siNAs equal volumes of the diluted siNA and delivery lipid were combined and incubated for 20 minutes at room temperature. Cells were meanwhile trypsinised and resuspended in antibiotic free BEBM media at 150,000 cells/ml. 20 ul of the formulated siNA and 80 ul of BEBM media was added per well of a 96 well plate (6 replicates/data point/siNA concentration) so as to give a nine point dose range of the siNAs (100 nM, 30 nM, 10 nM, 3 nM, 1 nM, 0.3 nM, 0.1 nM, 0.03 nM, 0.01 nM). The time of incubation with the transfection-siNA complexes were 48 hours with one change of media at 24 hours.
Total RNA was isolated from the cells in the 96-well plate format using the Automated SV96 Total RNA Isolation System (Promega) according to the manufacturer's instructions. The Biomek 2000 Laboratory Automation Workstation (Beckman Coulter) was used to apply the transfected cell lysates to a silica membrane. RNase-Free DNase I was then applied directly to the silica membrane to digest contaminating genomic DNA. The bound total RNA was further purified from contaminating salts, proteins and cellular impurities by simple washing steps. Finally, total RNA was eluted from the membrane by the addition of Nuclease-Free Water.
A series of probes and primers were used for the detection of mRNA transcripts of Bach1, OAS1, IL8 and GAPDH (as control/normalisation) in the human cell lines. The assays were performed on an ABI 7900HT instrument according to the manufacturer's instructions. Primer Probe sets used:
With Taqman data critical threshold values (Ct) were converted to copy numbers corresponding to the particular gene analysed in each well of the 384 well plate. Six identical wells were prepared in each plate for a given treatment. […] Determination of the percentage coefficient of variation (CV) (% C.V.=[standard deviation/average]*100) allowed the omitting of wells whose value was an outlier (so that % C.V.<25). Relative abundance (aka relative expression) of a gene was determined by dividing the mean copy number of that gene with its GAPDH counterpart in that particular sample.
EC50 values were calculated from the data using sigma plot. All calculations of the efficacy and potency of the siNAs were done relative to the non-targeting control siNA. Percentage knockdown was compared between the four lead siNA's. The data was analysed using an ANOVA test and then the p-values were corrected for multiple comparisons using the False Discovery Rate correction (FDR).

The subject of the next data set is Male CD rats. As to conditions: rat, in vivo, 10 mg/kg. As for the experimental part: Male CD rats were anaesthetised and intra-tracheally dosed with 200 ul of either vehicle, Poly I:C (1 mg/kg) or siNA (10 mg/kg). 24 hours later the rats were euthanized and the lungs lavaged 3 times with 5 ml of heparinised PBS. Total and differential cell counts as well as cytokine analysis were performed on the lung lavage fluid.

Data on seven substances can be found in patent publication US20120016010A1, “RNA Interference Mediated Inhibition of BTB and CNC Homology 1, Basic Leucine Zipper Transcription Factor 1 (BACH1) Gene Expression Using Short Interfering Nucleic Acid (siNA)” (Merck Sharp & Dohme Corp, priority 2009, published 2012).

Broadly, the EC50 is the midpoint of the concentration-response curve. High values mean lower potency in that assay, low ones higher potency in that assay. Regarding “29947-DC (sense GGAAUCCUGCUUUCAGUUUTT; antisense AAACUGAAAGCAGGAUUCCUU; inverted abasic caps (B), 2'-modified nucleotides, further chemistry not given here)”, in the data set on Bach1 mRNA, the concentration for a half-maximal effect (EC50) was 4.31 nM and the “Maximum mRNA knockdown” value is on record as 65%. Also, in the data set on Male CD rats, the cytokine production result was “no significant increases”; the “inflammatory cell (neutrophils and macrophages) influx” value (“inflammatory cell” for short) was “no significant increases”.
With “29956-DC (sense GUCUGAGUGUCCGUGGUUATT; antisense UAACCACGGACACUCAGACUU; inverted abasic caps (B), 2'-modified nucleotides, further chemistry not given here)”, in the data set on Bach1 mRNA, the EC50 amounted to 2.16 nM and the “Maximum mRNA knockdown” value amounted to 68%.
Taken in the same sequence, the figures for “29957-DC (sense GCAGUUACUUCCACUCAAGTT; antisense CUUGAGUGGAAGUAACUGCUU; inverted abasic end caps, TT overhangs, modified nucleotides, further chemistry not given here)” were 0.95 nM and 70%.
With “29961-DC (sense CUACACUGCUAAACUGAUUTT; antisense AAUCAGUUUAGCAGUGUAGUU; inverted abasic end caps, TT overhangs, modified nucleotides, further chemistry not given here)”, in the data set on Bach1 mRNA, the 50% effective concentration (EC50) is 7.87 nM and the “Maximum mRNA knockdown” value was 80%. Moreover, in the data set on Male CD rats, the cytokine production entry was “no significant increases”; the “inflammatory cell” value is reported as “no significant increases”.
On to “29964-DC (sense GAUUUGCAGGUGAUGUUAATT; antisense UUAACAUCACCUGCAAAUCUU; inverted abasic end caps, TT overhangs, modified nucleotides, further chemistry not given here)”, for which, in the data set with Bach1 mRNA, the EC50 worked out at 9.52 nM and the “Maximum mRNA knockdown” value is 72%. In the data set on Male CD rats, the cytokine production entry is given as “no significant increases”; the “inflammatory cell” value is on record as “no significant increases”.
For “29984-DC (sense GUUAAAGGAUUUGAACCUUTT; antisense AAGGUUCAAAUCCUUUAACUU; inverted abasic end caps, TT overhangs, modified nucleotides, further chemistry not given here)”, in the data set on Bach1 mRNA, the EC50 turned out to be 23.2 nM and the “Maximum mRNA knockdown” value came out at 65%.
Consider “29988-DC (sense AUUUGAACCUUUAAUUCAGTT; antisense CUGAAUUAAAGGUUCAAAUUU; inverted abasic end caps, TT overhangs, modified nucleotides, further chemistry not given here)”, for which, in the data set with Bach1 mRNA, the EC50 turned out to be 3.84 nM and the “Maximum mRNA knockdown” value amounted to 70%. Further, in the data set with Male CD rats, the cytokine production entry is “no significant increases”; the “inflammatory cell” value is on record as “no significant increases”.
